Results taken from patent US8637237B2, “Methods, compositions, and systems for the identification of species-specific or developmental stage-specific insecticides” (The University of North Carolina at Greensboro, priority 2003, dated 2014).

How the values were obtained:
[1] = biological target: T1, GRdEcR/RXR (Drosophila melanogaster, UniProt P34021, E261P/P331L/Q260P/V259R); assay: GRdEcR (GEcEc) chimera with RXR, (EcRE)5-ΔMTV reporter in CHO cells; format: cell-based
T1 construct: ligation of a Not I-Bam HI fragment containing the DBD and LBD of a modified EcR cDNA, EcRnx; expressed in transfected cells; host or cells: CHO
T1 sequence (P34021 259-878 V259R/Q260P/E261P/P331L limits assumed): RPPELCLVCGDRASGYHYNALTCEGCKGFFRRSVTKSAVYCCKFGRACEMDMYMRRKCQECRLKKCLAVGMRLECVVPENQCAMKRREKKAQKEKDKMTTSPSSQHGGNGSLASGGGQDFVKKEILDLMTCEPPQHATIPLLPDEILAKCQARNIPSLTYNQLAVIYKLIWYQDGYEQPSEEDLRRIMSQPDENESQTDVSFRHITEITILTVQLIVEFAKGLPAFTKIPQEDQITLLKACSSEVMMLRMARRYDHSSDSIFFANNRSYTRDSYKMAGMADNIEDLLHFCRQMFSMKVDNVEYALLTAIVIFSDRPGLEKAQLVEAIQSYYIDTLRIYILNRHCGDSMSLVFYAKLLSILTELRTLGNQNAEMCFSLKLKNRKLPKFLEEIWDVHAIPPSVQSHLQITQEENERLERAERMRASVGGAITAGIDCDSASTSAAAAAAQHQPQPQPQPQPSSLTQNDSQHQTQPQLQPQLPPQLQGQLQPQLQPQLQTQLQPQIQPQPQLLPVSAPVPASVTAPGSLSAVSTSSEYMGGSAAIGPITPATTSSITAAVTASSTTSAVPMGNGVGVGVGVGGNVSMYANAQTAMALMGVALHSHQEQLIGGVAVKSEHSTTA
T1 sequence (P28700 1-467 partner): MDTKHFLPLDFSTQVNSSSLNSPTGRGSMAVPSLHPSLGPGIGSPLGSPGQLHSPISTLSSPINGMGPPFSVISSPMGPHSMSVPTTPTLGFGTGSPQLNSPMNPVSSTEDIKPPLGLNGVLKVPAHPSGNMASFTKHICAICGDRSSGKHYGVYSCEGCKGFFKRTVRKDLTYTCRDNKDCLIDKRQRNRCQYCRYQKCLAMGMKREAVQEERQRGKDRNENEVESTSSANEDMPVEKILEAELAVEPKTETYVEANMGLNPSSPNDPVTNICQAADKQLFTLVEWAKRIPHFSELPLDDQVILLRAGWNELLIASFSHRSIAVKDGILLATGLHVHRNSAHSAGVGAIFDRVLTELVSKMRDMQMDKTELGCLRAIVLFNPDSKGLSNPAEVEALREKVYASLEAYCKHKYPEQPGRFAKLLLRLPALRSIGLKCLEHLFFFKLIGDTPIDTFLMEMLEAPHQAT
Description: (§1) These experiments employed a mammalian cell culture system using Chinese hamster ovary cells (CHO) to evaluate the transcriptional function of Drosophila melanogaster EcR and USP using methods described previously (U.S. Patent Application Publication No: 2005/0049230; Henrich et al, 2003). Cells were seeded in 6-well polypropylene culture plates (Falcon) with 10^5 cells per well on the day prior to transfection. Transfection was subsequently performed using either calcium phosphate (Kitareewan et al., 1996, Mol. Biol. Cell, 7:1153-1196) or a GenePorter reagent (Gene Therapy Systems, Inc; San Diego, Calif.) following manufacturer's protocols. Each well received 1.25 μg of (EcRE)5-ΔMTV-CAT (five copies of the hsp27 EcRE inserted into an mouse mammary tumor virus (MTV) promoter upstream of the chloramphenicol acetyltransferase (CAT) gene) or (EcRE)5-ΔMTV-LUC (the same promoter attached to firefly luciferase), 1.25 μg of pCH111 (SV40 early promoter linked to the β-galactosidase gene) to normalize CAT activity, and 0.25 μg of each expression plasmid (EcR, FXR, RXR, USP) that was tested. The cells were incubated with plasmid DNA for seven hours and then washed with 1×PBS. Muristerone A (murA; Alexis Biochemicals) or 20-hydroxyecdysone (20E; Sigma) dissolved in ethanol to a concentration of 10 mM was diluted as necessary to the final assay concentration (FAC) in 2 ml of fresh incubation medium that was then applied to the cells. Similarly, JHIII (Sigma) was dissolved in dimethyl sulfoxide (DMSO) to a concentration of […] and diluted into the incubation medium to its final assay concentration (20, 40, 80, 160 μM). […] A corresponding volume of ethanol and DMSO were added to control cells for all experiments. For all experiments, the cells were allowed to incubate with the medium for 24 hours before collection and cell lysates were prepared by described methods (Kitareewan et al., 1996). Both β-galactosidase and CAT reporter activity were measured based on previously used methods (Kitareewan et al, 1996). Luciferase assays using luciferrin followed the specifications of the manufacturer.
(§2) Transcriptional activity, measured as ^14C-chloramphenicol counts (for measuring CAT activity) or relative luciferase activity (RLU) was quantified for each cell lysate. The counts were then normalized by adjusting for differences in β-galactosidase activity, since β-galactosidase expression is controlled by a constitutive promoter and provides an estimate of cell mass. Data were normalized as fold-induction based on differences in reporter gene activity between hormonally treated and control cells.
(§3) In an initial series of studies, a GRdEcR chimera that consists of the rat glucocorticoid receptor (GR) activation domain attached to the EcR DBD and LBD (FIG. 1) was cotransfected along with mRXRα into CHO cells. The response of transfected cells to murA was measured using a (EcRE)5-ΔMTV-CAT reporter plasmid that carries five tandem repeats of the hsp27 EcRE linked to the MTV (mouse mammary tumor virus) promoter and the chloramphenicol acetyltransferase gene (CAT).
(§4) The prominent candidate for this JH-responsive macromolecule in insects is the structurally-related ecdysone receptor (EcR). Like FXR, EcR heterodimerizes with RXR and binds to the hsp27 ecdysone-responsive DNA element (Forman et al., 1995), but distinctively activates transcription in response to muristerone A (MurA or MUR), a synthetic ecdysone (Yao et al., 1992). […] In the experiments shown in FIG. 15A, muristerone A (MUR) was added at the indicated doses in ethanol vehicle, and increasing amounts of JH III (12, 25, or 50 μM) were added (underlying triangles). Numbers over bars indicate the ratio of the GEcEc-dependent activity produced by 50 μM JH III in the presence of the indicated dose of MUR to the activity produced by MUR alone. Relative light units (RLU) from firefly luciferase in cell lysates are expressed relative to renilla luciferase (Promega).

[2] = biological target: T2, GRdEcR/RXR (Drosophila melanogaster, UniProt P34021); assay: as above; format: cell-based; conditions: 25 μM insecticide; 10 nM MUR
T2 construct: ligation of a Not I-Bam HI fragment containing the DBD and LBD of a modified EcR cDNA, EcRnx; expressed in transfected cells; host or cells: CHO
T2 sequence (P34021 259-878 V259R/Q260P/E261P/P331L limits assumed): T1 sequence (P34021 259-878 V259R/Q260P/E261P/P331L limits assumed)
T2 sequence (P28700 1-467 partner): T1 sequence (P28700 1-467 partner)
Description: as §1, §2, §3, §4

[3] = biological target: T3, FXR (Rattus norvegicus, UniProt Q62735); assay: cell-based
T3 sequence (Q62735 1-469): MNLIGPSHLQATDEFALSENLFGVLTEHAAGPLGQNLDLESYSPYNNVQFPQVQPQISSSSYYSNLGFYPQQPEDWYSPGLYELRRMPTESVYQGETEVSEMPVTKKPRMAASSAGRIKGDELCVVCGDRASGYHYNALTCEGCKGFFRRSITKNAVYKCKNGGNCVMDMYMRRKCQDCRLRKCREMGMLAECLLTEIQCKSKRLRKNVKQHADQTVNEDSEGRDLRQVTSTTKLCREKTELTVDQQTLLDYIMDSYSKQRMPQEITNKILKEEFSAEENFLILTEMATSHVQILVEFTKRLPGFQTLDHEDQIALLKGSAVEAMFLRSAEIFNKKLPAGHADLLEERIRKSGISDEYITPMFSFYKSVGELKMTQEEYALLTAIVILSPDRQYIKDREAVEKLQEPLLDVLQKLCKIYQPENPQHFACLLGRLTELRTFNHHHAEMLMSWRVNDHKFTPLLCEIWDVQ
T3 sequence (P28700 1-467 partner): T1 sequence (P28700 1-467 partner)
Description: as §1, §2
In these experiments, candidate juvenoids were tested for their ability to activate FXR mediated transcription by transfecting Chinese hamster ovary (CHO) cells using the FXR plasmid, mouse RXRα, and the ΔMTV-(EcRE)5-CAT reporter as described herein. An RXR-dependent CRBPII-CAT reporter plasmid was employed in parallel assays to discern activators specific for this receptor.

[4] = system: insect; conditions: from Schneiderman and Gilbert, Science 143; cited from earlier work
[5] = final dose of 50 ∝M, 1 = induction less than 2-fold below cytotoxic doses

C[C@H](CCC(=O)O)[C@H]1CC[C@H]2[C@@H]3[C@H](O)C[C@@H]4C[C@H](O)CC[C@]4(C)[C@H]3CC[C@]12C [CDCA, chenodeoxycholic acid]
induction of GEcEc ([1]; data not shown): did not induce

CCOP(=S)(OCC)Oc1nc(Cl)c(Cl)cc1Cl [chlorpyrifos]
GEcEc-dependent activity, insecticide plus MUR over MUR alone [2]: nine times | FXR-dependent activity, induction ([3]; 25 μM): potencies and efficacies like farnesol

CCOP(=S)(OCC)Oc1ccc2c(C)c(Cl)c(=O)oc2c1 [coumaphos]
GEcEc-dependent activity, insecticide plus MUR over MUR alone [2]: between two and three times

CCOP(=S)(OCC)Oc1cc(C)nc(C(C)C)n1 [diazinon]
GEcEc-dependent activity, insecticide plus MUR over MUR alone [2]: between two and three times

CC(C)=CCCC(C)=CCCC(C)=CC=O [farnesal]
JH ACTIVITY (units/g) [4]: 32 units/g | FXR-dependent CAT activity, induction ([3]; 50 μM): 2 fold | FXR ACTIVITY (fold-induction) [3, 5]: 2 fold-induction

CC(C)=CCC/C(C)=C/CC/C(C)=C/CO [farnesol, all-trans farnesol]
JH ACTIVITY (units/g) [4]: 140 units/g | increase in GEcEc activity over that provided by MUR alone ([1]; 45 μM farnesol with MUR): 4 fold

CC(=O)OCC=C(C)CCC=C(C)CCC=C(C)C [farnesyl acetate]
JH ACTIVITY (units/g) [4]: 5.4 units/g

CC(C)=CCC/C(C)=C/CO [geraniol]
JH ACTIVITY (units/g) [4]: 0 units/g | FXR-dependent activity, induction ([3]; dose not stated): neither the monoterpenes linalool (200 μM) nor geraniol were effective | FXR ACTIVITY (fold-induction) [3, 5]: 1 fold-induction

CC(C)CCCC(C)CCCC(C)CCO (stereo not drawn) [hexahydrofarnesol]
JH ACTIVITY (units/g) [4]: 0 units/g

C=CC(C)(O)CCCC(C)CCCC(C)CCCC(C)C (stereo not drawn) [isophytol]
JH ACTIVITY (units/g) [4]: 0 units/g

C=CC(C)(O)CCC=C(C)C (stereo not drawn) [linalool]
JH ACTIVITY (units/g) [4]: 0.08 units/g

CC1(C)C(C=C(Cl)Cl)C1C(=O)OCc1cccc(Oc2ccccc2)c1 (stereo not drawn) [permethrin]
GEcEc-dependent activity, insecticide plus MUR over MUR alone [2]: between two and three times

C/C(=C\CO)CCC[C@H](C)CCC[C@H](C)CCCC(C)C [phytol]
JH ACTIVITY (units/g) [4]: 32 units/g | FXR-dependent CAT activity, induction ([3]; 50 μM): three times | FXR ACTIVITY (fold-induction) [3, 5]: 3 fold-induction

c1cc2c(cc1[C@H]1OC[C@H]3[C@@H]1CO[C@@H]3c1ccc3c(c1)OCO3)OCO2 [sesamin]
potentiation of MUR-inducible GEcEc-dependent activity ([1]; 25 μM test compound, 0.2 μM muristerone A): between two and four times | FXR-dependent activity, induction ([3]; 100 μM): 12 fold | FXR ACTIVITY (fold-induction) ([3]; dose 100 μM, 1 = no increase over vehicle): 12 fold-induction

CC(C)=CCC/C(C)=C/CC/C(C)=C/CC/C(C)=C/CC/C(C)=C/CC/C(C)=C/CC/C(C)=C/CC/C(C)=C/CC/C(C)=C/CO [solanesol]
JH ACTIVITY (units/g) [4]: 0.05 units/g

CC1=CCC(C(C)(C)O)CC1 (stereo not drawn) [α-terpineol]
FXR-dependent activity, induction ([3]; 800 μM): two-fold | FXR ACTIVITY (fold-induction) ([3]; dose 400 μM): 402 fold-induction

C[C@H]1[C@H](C)CC[C@]2(C)CC[C@]3(C)C(=CC[C@@H]4[C@@]5(C)CC[C@@H](O)[C@](C)(C(=O)O)[C@@H]5CC[C@]43C)[C@H]12 [β-boswellic acid]
FXR-dependent activity, induction ([3]; 25 μM): 11 fold | FXR ACTIVITY (fold-induction) ([3]; dose 25 μM): 11 fold-induction

CC(=O)/C=C/C1=C(C)CCCC1(C)C [β-ionone]
FXR ACTIVITY (fold-induction) ([3]; dose 150 μM): 10 fold-induction

CC(C)=CCC/C(C)=C/CC/C(C)=C/CC[C@]1(C)CCc2cc(O)c(C)c(C)c2O1 [γ-tocotrienol]
FXR ACTIVITY (fold-induction) ([3]; dose 20 μM, 1 = no increase over vehicle): 1 fold-induction

aroclor 1254
FXR-dependent CAT activity, induction ([3]; 5 μM): 5 fold

geranyl linalool
JH ACTIVITY (units/g) [4]: 0.14 units/g

precocene
GEcEc-dependent activity, insecticide plus MUR over MUR alone [2]: between two and three times | inhibition of FXR-dependent activity in the CHO cell-based assay [3]: did not inhibit

toxaphenes
FXR-dependent CAT activity, induction ([3]; 5 μM): 9 fold
